This assay concerns PC-12 cell. The following applies: cell-scanning speed 250 μm/s. The source says: The flow rate was 3.24 mm/s and the cell scanning speed was 250 μm/s.
In these applications, as discussed above, both the flow rate of the fluids exiting the microchannels and the scan rate of the patch clamped cell are important. […] The width of each microchannel is 100 μm, the thickness is 50 μm, and the intermicrochannel spacing is 25 μm. The procedure used for fabricating the microchannels and for patch clamping are identical to that described in Example 2 (see above). The patch clamped cell used was a PC-12 cell, which was placed between 10 to 20 micrometers away from the outlets of the microchannels. Microchannels 1, 3, 5 and 7 were filled with PBS buffer, while microchannels 2, 4 and 6 were filled with acetylcholine. The flow rate of the fluid streams was 6.8 mm/s.
In a 7-microchannel structure, microchannels 1, 3, 5 and 7 were filled with PBS buffer, whereas microchannels 2, 4, and 6 were filled with 1 μM, 12 μM, and 200 μM nicotine, respectively. The flow rate used was […] and the cell-scanning speed was 250 μm/s. The patch-clamped cell was placed between 10 to 20 μm away from the outlet of the microchannel.

In the case of `CN1CCCC1c1cccnc1` (stereo not drawn) [nicotine], the Whole-cell current response entry (1 μM nicotine) is reported as “barely discernible”. Also, for the setting “12 μM nicotine”, the Whole-cell current peak result is reported as “detected with good signal-to-noise ratio”. Further, the “Current peak at 200 μM relative to the peak for 12 μM” value (200 μM nicotine versus 12 μM) was 15 to 20 times.

The record behind these values is patent US20040181343A1, “Computer program products and systems for rapidly changing the solution environment around sensors” (Cellectricon AB, priority 2002, published 2004).
